According to ChEMBL document CHEMBL1201862, “PubChem BioAssay data set” (2004):
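96-well plates; 48 h exposure; 5 concentrations. Endpoints by linear interpolation between flanking doses. Not reached: highest tested concentration assigned. GI50 marks 50% less growth.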 Active and inactive are the calls of the source. Rule as the data show it: active = GI50 up to about 1.1 µM and inactive = higher.

How the values were obtained:
Test in all cases: growth of human tumour cells (NCI), 48 h
[1] = system: A498
[2] = system: MOLT-4
[3] = system: UO-31
[4] = system: DU-145
[5] = system: HCT-15
[6] = system: A549
[7] = system: SK-MEL-5
[8] = system: KM12
[9] = system: Hs-578T
[10] = system: SN12C
[11] = system: 786-0
[12] = system: SK-OV-3
[13] = system: MDA-N
[14] = system: CCRF-CEM
[15] = system: TK-10
[16] = system: SF-295
[17] = system: SK-MEL-2
[18] = system: SW-620
[19] = system: EKVX
[20] = system: SF-268

Structure (SMILES) | GI50 [1] | GI50 [2] | GI50 [3] | GI50 [4] | GI50 [5] | GI50 [6] | GI50 [7] | GI50 [8] | GI50 [9] | GI50 [10] | GI50 [11] | GI50 [12] | GI50 [13] | GI50 [14] | GI50 [15] | GI50 [16] | GI50 [17] | GI50 [18] | GI50 [19] | GI50 [20]
CNC(=O)OCc1nc(SSC(C)(C)C)n(C)c1COC(=O)NC | 9.38 µM (inactive) | 1.28 µM (inactive) | 9.02 µM (inactive) | 19.1 µM (inactive) | 1.84 µM | 14.2 µM (inactive) | 5.98 µM (inactive) | 17.3 µM (inactive) | 2.22 µM (inactive) | 4.42 µM (inactive) | 3.06 µM (inactive) | 17.1 µM (inactive) | 2.45 µM (inactive) | 0.697 µM (active) | 6.11 µM (inactive) | 17.1 µM (inactive) | 8.02 µM (inactive) | 1.61 µM (inactive) | 8.28 µM (inactive) | 6.75 µM (inactive)
Nc1nc(N)c2ncn(-c3ccc(Cl)c(Cl)c3)c2n1 | 13.3 µM (inactive) | 12.2 µM (inactive) | 18.5 µM (inactive) | 18.5 µM (inactive) | 26 µM | 30.8 µM (inactive) | 31.2 µM (inactive) | 25.4 µM (inactive) | 15 µM (inactive) | 15.8 µM (inactive) | 14.1 µM (inactive) | 24.9 µM (inactive) | 30.9 µM (inactive) | 3.71 µM (inactive) | 16.7 µM (inactive) | 28.1 µM (inactive) | 12.4 µM (inactive) | 42.4 µM (inactive) | 25.5 µM (inactive) | 31.7 µM (inactive)
O=C1C(Cl)C(c2cc3cc(Br)ccc3nc2Cl)N1c1ccc(Cl)cc1 (centres undefined) | 16.5 µM (inactive) | 3.89 µM (inactive) | 0.815 µM (active) | 6.95 µM (inactive) | 4.86 µM | 10.4 µM (inactive) | 3.21 µM (inactive) | 8.97 µM (inactive) | 9.2 µM (inactive) | 4.45 µM (inactive) | 4.65 µM (inactive) | 10.3 µM (inactive) | 5.53 µM (inactive) | 3.08 µM (inactive) | 5.24 µM (inactive) | 9.68 µM (inactive) | 4.37 µM (inactive) | 7.35 µM (inactive) | 4.16 µM (inactive) | 4.51 µM (inactive)
O=C1c2cccc([N+](=O)[O-])c2C(=O)N1c1ncn[nH]1 | 53 µM (inactive) | > 100 µM (inactive) | > 100 µM (inactive) | > 100 µM (inactive) | > 100 µM | > 100 µM (inactive) | > 100 µM (inactive) | > 100 µM (inactive) | 36.4 µM (inactive) | > 100 µM (inactive) | 58.1 µM (inactive) | 32.7 µM (inactive) | > 100 µM (inactive) | > 100 µM (inactive) | 27.2 µM (inactive) | 51.5 µM (inactive) | 41.2 µM (inactive) | > 100 µM (inactive) | 53 µM (inactive) | 37 µM (inactive)
Cc1cc(S(=O)(=O)Nc2nnc3c4ccccc4cnn23)c(S)cc1Cl | > 85.1 µM (inactive) | > 100 µM (inactive) | > 91.2 µM (inactive) | 61.9 µM (inactive) | > 58.6 µM | 70.5 µM (inactive) | > 81.5 µM (inactive) | 31.7 µM (inactive) | 40.1 µM (inactive) | > 100 µM (inactive) | > 74.3 µM (inactive) | 34.7 µM (inactive) | > 100 µM (inactive) | > 100 µM (inactive) | > 100 µM (inactive) | 47.5 µM (inactive) | 31.6 µM (inactive) | > 100 µM (inactive) | 44 µM (inactive) | 39.9 µM (inactive)
O=C(NC/C(Cl)=C/Cl)Nc1c2ccccc2nc2ccccc12 | 67.1 µM (inactive) | 29.3 µM (inactive) | > 100 µM (inactive) | 54.5 µM (inactive) | 59 µM | > 100 µM (inactive) | 57.9 µM (inactive) | > 100 µM (inactive) | > 100 µM (inactive) | 69.7 µM (inactive) | 33.3 µM (inactive) | > 100 µM (inactive) | > 100 µM (inactive) | – | > 100 µM (inactive) | > 100 µM (inactive) | > 100 µM (inactive) | > 100 µM (inactive) | > 100 µM (inactive) | > 100 µM (inactive)
Cn1c(SCc2ccc([N+](=O)[O-])cc2)nnc1C12CC3CC(CC(C3)C1)C2 | > 10 µM (inactive) | > 10 µM (inactive) | > 10 µM (inactive) | > 10 µM (inactive) | > 10 µM | > 10 µM (inactive) | > 10 µM (inactive) | > 10 µM (inactive) | > 10 µM (inactive) | > 10 µM (inactive) | > 10 µM (inactive) | > 10 µM (inactive) | > 10 µM (inactive) | > 10 µM (inactive) | – | > 10 µM (inactive) | > 10 µM (inactive) | > 10 µM (inactive) | > 10 µM (inactive) | > 10 µM (inactive)
Cc1nnc2ccccc2c1O | > 100 µM (inactive) | 6.34 µM (inactive) | > 100 µM (inactive) | > 100 µM (inactive) | > 100 µM | > 100 µM (inactive) | > 100 µM (inactive) | > 100 µM (inactive) | > 100 µM (inactive) | > 100 µM (inactive) | > 100 µM (inactive) | > 100 µM (inactive) | > 100 µM (inactive) | – | > 100 µM (inactive) | > 100 µM (inactive) | > 100 µM (inactive) | > 100 µM (inactive) | > 100 µM (inactive) | > 100 µM (inactive)
CSc1c2c(C)n[nH]c2nn1-c1ccccc1 | 90.8 µM (inactive) | 42.6 µM (inactive) | 46.7 µM (inactive) | 88.3 µM (inactive) | 37.2 µM | > 100 µM (inactive) | > 100 µM (inactive) | 68.7 µM (inactive) | > 100 µM (inactive) | > 100 µM (inactive) | 66.8 µM (inactive) | > 100 µM (inactive) | > 100 µM (inactive) | 33 µM (inactive) | > 100 µM (inactive) | – | > 100 µM (inactive) | 57.1 µM (inactive) | 83.4 µM (inactive) | 57.8 µM (inactive)
NNC(=O)C(O)C(O)C(O)CO (centres undefined) | > 100 µM (inactive) | – | > 100 µM (inactive) | > 100 µM (inactive) | > 100 µM | > 100 µM (inactive) | > 100 µM (inactive) | > 100 µM (inactive) | > 100 µM (inactive) | > 100 µM (inactive) | > 100 µM (inactive) | > 100 µM (inactive) | > 100 µM (inactive) | > 100 µM (inactive) | > 100 µM (inactive) | > 100 µM (inactive) | > 100 µM (inactive) | > 100 µM (inactive) | > 100 µM (inactive) | > 100 µM (inactive)
CC(=O)OCC(OC(C)=O)C1C[C@H]2O[C@@H]3[C@H](C[C@H]2O1)O[C@@]1(C[C@@H]3C)C[C@H](C)[C@@H]2O[C@]3(C[C@@H]2O1)C[C@H]1O[C@H]2[C@H](C)[C@H]4OC(=O)C[C@H]5CC[C@@H]6OC7[C@H]8O[C@]9(CC[C@H]%10CC(=O)[C@H](CC[C@H]%11C[C@@H](C)C(=O)C(C[C@@H]4O[C@H]2C[C@H]1O3)O%11)O%10)CC8O[C@@H]7[C@@H](O9)[C@H]6O5 (some centres undefined) | > 0.434 µM (active) | 0.0184 µM (active) | 0.0388 µM (active) | 0.00423 µM (active) | 0.00635 µM | 0.00501 µM (active) | 0.000458 µM (active) | 0.00183 µM (active) | 0.00179 µM (active) | 0.0142 µM (active) | 0.00308 µM (active) | 0.00728 µM (active) | 0.000321 µM (active) | 0.00436 µM (active) | – | 0.00242 µM (active) | 0.0481 µM (active) | 0.00438 µM (active) | 0.0201 µM (active) | 0.00509 µM (active)
C/C=C1/CC(C(=O)OC)N(C(=O)OCc2ccccc2)C1=S (centres undefined) | > 100 µM (inactive) | > 100 µM (inactive) | > 100 µM (inactive) | > 100 µM (inactive) | > 100 µM | > 100 µM (inactive) | > 100 µM (inactive) | > 100 µM (inactive) | > 100 µM (inactive) | – | > 100 µM (inactive) | > 100 µM (inactive) | > 100 µM (inactive) | – | > 100 µM (inactive) | > 100 µM (inactive) | > 100 µM (inactive) | > 100 µM (inactive) | 84.3 µM (inactive) | > 100 µM (inactive)
O=C(CN1CCOCC1)c1ccc2c(c1)oc(=O)n2CCN1CCCC1 | > 100 µM (inactive) | > 100 µM (inactive) | – | > 100 µM (inactive) | > 100 µM | – | > 100 µM (inactive) | > 100 µM (inactive) | > 100 µM (inactive) | > 100 µM (inactive) | > 100 µM (inactive) | > 100 µM (inactive) | > 100 µM (inactive) | > 100 µM (inactive) | > 100 µM (inactive) | > 100 µM (inactive) | > 100 µM (inactive) | > 100 µM (inactive) | > 100 µM (inactive) | > 100 µM (inactive)
CCN(CC)CCNC(=O)c1cc2cc(NC(=O)c3cc4cc(N)ccc4[nH]3)ccc2[nH]1 | > 100 µM (inactive) | 13.2 µM (inactive) | > 100 µM (inactive) | 19.6 µM (inactive) | > 100 µM | 41 µM (inactive) | – | 14.7 µM (inactive) | 35 µM (inactive) | 39 µM (inactive) | 35.8 µM (inactive) | 31.3 µM (inactive) | 33.9 µM (inactive) | 9.53 µM (inactive) | > 100 µM (inactive) | > 100 µM (inactive) | 29.1 µM (inactive) | 33.3 µM (inactive) | 97.1 µM (inactive) | 31.4 µM (inactive)
